# Measured values taken from the Kinase Knowledgebase extract (Sharma et al. 2016).
# Biological target: PIK3CG (human) (UniProt P48736)
# Experiment: Inhibition of PIK3CG Kinase Activity
# PIK3CG (human), sequence (P48736 whole entry, looked up): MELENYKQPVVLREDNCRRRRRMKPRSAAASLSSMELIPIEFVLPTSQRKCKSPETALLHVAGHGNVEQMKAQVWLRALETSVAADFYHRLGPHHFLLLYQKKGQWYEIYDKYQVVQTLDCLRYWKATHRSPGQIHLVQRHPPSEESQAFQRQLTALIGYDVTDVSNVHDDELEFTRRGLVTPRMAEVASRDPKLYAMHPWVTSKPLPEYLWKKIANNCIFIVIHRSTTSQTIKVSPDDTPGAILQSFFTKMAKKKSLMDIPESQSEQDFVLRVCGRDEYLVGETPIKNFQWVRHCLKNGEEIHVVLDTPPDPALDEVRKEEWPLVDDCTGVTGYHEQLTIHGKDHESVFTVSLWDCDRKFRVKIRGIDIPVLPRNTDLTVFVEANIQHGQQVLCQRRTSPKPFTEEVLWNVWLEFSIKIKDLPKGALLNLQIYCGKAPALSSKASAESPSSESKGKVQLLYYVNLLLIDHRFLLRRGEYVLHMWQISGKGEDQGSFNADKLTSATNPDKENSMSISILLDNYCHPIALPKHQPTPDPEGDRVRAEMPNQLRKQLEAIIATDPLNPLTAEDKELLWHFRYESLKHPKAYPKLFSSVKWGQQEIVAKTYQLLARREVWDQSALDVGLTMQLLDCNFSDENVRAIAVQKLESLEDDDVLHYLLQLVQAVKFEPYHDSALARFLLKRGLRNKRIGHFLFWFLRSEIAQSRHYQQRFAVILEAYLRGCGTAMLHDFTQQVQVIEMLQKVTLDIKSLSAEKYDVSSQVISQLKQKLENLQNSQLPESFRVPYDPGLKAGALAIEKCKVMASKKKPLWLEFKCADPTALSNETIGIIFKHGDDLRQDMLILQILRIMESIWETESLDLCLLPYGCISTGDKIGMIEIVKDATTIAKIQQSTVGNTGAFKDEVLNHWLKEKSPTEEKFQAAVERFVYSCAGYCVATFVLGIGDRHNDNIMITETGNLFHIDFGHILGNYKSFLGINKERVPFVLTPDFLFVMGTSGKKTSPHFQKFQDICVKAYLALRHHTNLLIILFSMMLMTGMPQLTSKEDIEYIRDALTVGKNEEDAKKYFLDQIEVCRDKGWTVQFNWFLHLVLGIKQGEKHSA
row,Compound,Ki [µM]
1,COc1cc(-c2ccc3c(n2)CN(c2ccc(OCC#N)nc2)C3=O)cnc1OC,0.1 to 0.49
2,COc1ncc(-c2cc(C)c3c(n2)C(C)N(c2cnn(CC(F)(F)F)c2)C3=O)cc1C(=O)NC(C)C (centres undefined),< 0.1
3,COc1cc(-c2ccc3c(n2)CN(c2ccc(N4CCC(OC)CC4)nc2)C3=O)cnc1OC,< 0.1
4,COc1cc(-c2ccc3c(c2)CN(c2cnn(C)c2)C3=O)cnc1OC,0.1 to 0.49
5,COc1cc(-c2cc(C)c3c(n2)CN(c2cccc(C(C)(C)C#N)n2)C3=O)cnc1OC,< 0.1
6,COc1ncc(-c2cc(C)c3c(n2)C(C)(C)N(c2cnn(CC(F)(F)F)c2)C3=O)cc1NS(=O)(=O)N(C)C,< 0.1
7,COc1cncc(-c2cc(C)c3c(n2)C(C)(OC)N(c2cnn(CC(F)(F)F)c2)C3=O)c1 (centres undefined),< 0.1
8,COc1cc(-c2ccc3c(n2)[C@@H](C)N(c2ccnc(CC#N)c2)C3=O)cnc1OC,< 0.1
9,Cc1ncc(-c2ccc3c(n2)CN(c2cnn(CC(F)(F)F)c2)C3=O)cc1O,0.1 to 0.49
10,COc1cc(-c2cc(C)c3c(n2)CN(c2cnn(CC(F)(F)F)c2)C3=O)cnc1O,< 0.1
11,COc1cc(-c2ccc3c(n2)C(Cc2ccccc2)N(c2cnn(CC(F)(F)F)c2)C3=O)cnc1OC (centres undefined),< 0.1
12,COCCOc1ccc(N2Cc3nc(-c4cnc(OC)c(OC)c4)ccc3C2=O)cn1,< 0.1
13,COc1cc(-c2ccc3c(n2)CN(c2cn(CC(F)(F)F)cn2)C3=O)cnc1OC,< 0.1
14,COc1cc(-c2cc(C)c3c(n2)CN(c2ccnc(C4(C#N)CC4)c2)C3=O)cnc1OC,< 0.1
15,CCNC(=O)c1cncc(-c2cc(C)c3c(n2)C(C)N(c2cnn(CC(F)(F)F)c2)C3=O)c1 (centres undefined),< 0.1
16,COc1cc(-c2ccc3c(n2)CN(c2cc(C)n(CC(F)(F)F)n2)C3=O)cnc1OC,< 0.1
17,COc1cncc(-c2cc(C)c3c(n2)C(OC)N(c2cnn(CC(F)(F)F)c2)C3=O)c1 (centres undefined),< 0.1
18,Cc1cc(-c2cncc(OC(F)F)c2)nc2c1C(=O)N(c1ccnc(F)c1)C2C (centres undefined),< 0.1
19,COc1cc(-c2ccc3c(n2)CN(c2ccc(N(C)CCC4OCCO4)nc2)C3=O)cnc1OC,0.1 to 0.49
20,Cc1cc(-c2cnc3ccccc3c2)nc2c1C(=O)N(c1cnn(CC(F)(F)F)c1)C2,< 0.1
21,COc1ncc(-c2cc(C)c3c(n2)C(C)(C)N(c2cnn(CC(F)(F)F)c2)C3=O)cc1C(=O)NC(C)CO (centres undefined),< 0.1
22,COCc1cccc(-c2cc(C)c3c(n2)CN(c2cnn(C(C)(C)C#N)c2)C3=O)c1,0.1 to 0.49
23,CCCOc1cc(-c2cc(C)c3c(n2)CN(c2ccn(CC)n2)C3=O)cnc1OC,< 0.1
24,COc1cc(-c2cc(C)c3c(n2)CN(c2ccnc(C)c2)C3=O)cnc1OC,< 0.1
25,COc1cc(-c2ccc3c(n2)C(O)N(c2cnn(CC(F)(F)F)c2)C3=O)cnc1OC (centres undefined),< 0.1
26,CCn1cc(N2Cc3nc(-c4cnc(OCCOC)c(OC)c4)cc(C)c3C2=O)cn1,< 0.1
27,Cc1cc(-c2cc(O)cs2)nc2c1C(=O)N(c1cnn(CC(F)(F)F)c1)C2,< 0.1
28,CCOc1ncc(-c2cc(C)c3c(n2)CN(c2cnn(C(C)(C)C#N)c2)C3=O)cc1OC,< 0.1

# Results, then the molecule that gave them:
row,Ki [µM],Compound
1,< 0.1,CCn1cc(N2C(=O)c3ccc(-c4cnc(OC)c(OC)c4)nc3[C@H]2C)cn1
2,< 0.1,COc1cc(-c2ccc3c(n2)[C@@H](OC)N(c2cnn(CC(F)(F)F)c2)C3=O)cnc1OC
3,< 0.1,COc1cncc(-c2cc(C)c3c(n2)CN(c2cnn(CC(F)(F)F)c2)C3=O)c1
4,< 0.1,CCn1cc(N2Cc3nc(-c4cnc(OC)c(OC(F)F)c4)cc(C)c3C2=O)cn1
5,< 0.1,CCOc1ncc(-c2cc(C)c3c(n2)C(OC(C)C)N(c2cnn(CC(F)(F)F)c2)C3=O)cc1OC (centres undefined)
6,< 0.1,COc1cc(-c2ccc3c(n2)CN(c2cnn(CC(C)O)c2)C3=O)cnc1OC (centres undefined)
7,< 0.1,Cc1cc(-c2ccc(N)nc2)nc2c1C(=O)N(c1cnn(CC(F)(F)F)c1)C2
8,< 0.1,COc1cc(-c2ccc3c(n2)CN(c2ccc(N4CCC(CO)CC4)nc2)C3=O)cnc1OC
9,< 0.1,Cc1cc(-c2cncc(OC(F)F)c2)nc2c1C(=O)N(c1cn[nH]c1)C2C (centres undefined)
10,0.1 to 0.49,Cc1cc(-c2cncc(N)c2)nc2c1C(=O)N(c1cnn(CC(F)(F)F)c1)C2
11,0.1 to 0.49,COc1cc(-c2ccc3c(n2)CN(c2cnn(CCn4nc(C)cc4C)c2)C3=O)cnc1OC
12,< 0.1,COc1ncc(-c2cc(C)c3c(n2)CN(c2cnn(C)c2)C3=O)cc1OC(F)F
13,< 0.1,COc1cc(-c2ccc3c(n2)CN(c2ccnc(CC#N)c2)C3=O)cnc1OC
14,< 0.1,CCCCOCCOc1cc(-c2cc(C)c3c(n2)CN(c2cnn(CC(F)(F)F)c2)C3=O)cnc1OC
15,< 0.1,COc1cc(-c2cc(C)c3c(n2)CN(c2ccc(C(C)(C)O)nc2)C3=O)cnc1OC
16,< 0.1,CCNC(=O)Cn1cc(N2Cc3nc(-c4cnc(OC)c(OC)c4)ccc3C2=O)cn1
17,< 0.1,COc1cc(-c2cc(C)c3c(n2)CN(c2cnn(C[C@@H](C)O)c2)C3=O)cnc1OC
18,< 0.1,COc1cc(-c2ccc3c(n2)CN(c2ccon2)C3=O)cnc1OC
19,< 0.1,COc1cc(-c2cc(C)c3c(n2)CN(c2cnn(CC(F)(F)F)c2)C3=O)ccc1C
20,< 0.1,COc1cc(-c2ccc3c(n2)CN(c2cnn(Cc4csc(C)n4)c2)C3=O)cnc1OC
21,< 0.1,COc1cc(-c2cc(N3CCC3)c3c(n2)CN(c2cnn(CC(F)(F)F)c2)C3=O)cnc1OC

row,Ki [µM],Compound
1,< 0.1,COc1cc(-c2ccc3c(n2)[C@@H](C)N(c2cccc(C(C)(C)C#N)n2)C3=O)cnc1OC
2,< 0.1,COc1csc(-c2cc(C)c3c(n2)CN(c2cnn(CC(F)(F)F)c2)C3=O)c1
3,0.1 to 0.49,Cc1cc(-c2cncc(NC(=O)C(C)C)c2)nc2c1C(=O)N(c1cnn(CC(F)(F)F)c1)C2(C)C
4,< 0.1,CCC#CCn1cc(N2Cc3cc(-c4cnc(OC)c(OC)c4)ccc3C2=O)cn1
5,< 0.1,COCCNC(=O)c1cc(-c2cc(C)c3c(n2)C(C)(C)N(c2cnn(CC(F)(F)F)c2)C3=O)cnc1OC
6,0.1 to 0.49,CCc1cc(N2Cc3nc(-c4cnc(OC)c(OC)c4)ccc3C2=O)n[nH]1
7,< 0.1,Cc1cc(-c2cncc(OCC(F)(F)F)c2)nc2c1C(=O)N(c1cnn(CC(F)(F)F)c1)[C@H]2C
8,0.1 to 0.49,COCCn1cc(N2Cc3cc(-c4cnc(OC)c(OC)c4)ccc3C2=O)cn1
9,< 0.1,CCOc1cncc(-c2cc(C)c3c(n2)C(OC)N(c2cnn(CC(F)(F)F)c2)C3=O)c1 (centres undefined)
10,< 0.1,COc1cc(-c2ccc3c(n2)CN(c2ccn(CC4CCCCO4)n2)C3=O)cnc1OC (centres undefined)
11,< 0.1,COc1cc(-c2cc(C)c3c(n2)C(C)(C)N(c2cnn(CC(F)(F)F)c2)C3=O)cnc1F
12,< 0.1,COc1cc(-c2ccc3c(n2)CN(c2cnn(CCCO)c2)C3=O)cnc1OC
13,< 0.1,Cc1cc(-c2cncc(OCC(F)(F)F)c2)nc2c1C(=O)N(c1cnn(CC#N)c1)C2(C)C
14,< 0.1,COc1cc(-c2ccc3c(n2)CN(c2ccn(C)n2)C3=O)cnc1OC
15,< 0.1,Cc1cc(-c2cncc(C(=O)O)c2)nc2c1C(=O)N(c1cnn(CC(F)(F)F)c1)C2
16,< 0.1,Cc1cc(-c2cncc(C(=O)NC(C)(C)C)c2)nc2c1C(=O)N(c1cnn(CC(F)(F)F)c1)C2
17,< 0.1,CCOCCCOc1cc(-c2cc(C)c3c(n2)CN(c2cnn(CC(F)(F)F)c2)C3=O)cnc1OC
18,< 0.1,COc1cc(-c2ccc3c(n2)CN(c2ccsc2)C3=O)cnc1OC
19,0.1 to 0.49,COc1cc(-c2ccc3c(n2)CN(c2ccc(N4CCOC(CO)C4)nc2)C3=O)cnc1OC (centres undefined)
20,< 0.1,COCCOCCOc1ncc(-c2cc(C)c3c(n2)CN(c2cnn(CC#N)c2)C3=O)cc1OC
